According to patent publication US20260055117A1, “SUBSTITUTED PYRIDONE GPR84 ANTAGONISTS AND USES THEREOF” (Liminal BioSciences Limited, priority 2022, published 2026):

Biological target: T1, human GPR84 receptor (Homo sapiens, UniProt Q9NQS5)
T1 construct: host or cells: HEK293, transiently transfected
Test: Gαi biosensor BRET assay (GPR84 antagonism vs agonist ZQ-16)
Format: cell-based
Settings: HEK293 cells, 200 nmol/L agonist ZQ-16; for IC50: Gαi biosensor BRET assay; for inhibition at 2 µM: tested at 2 μM (concentration code A); for inhibition at 10 µM: tested at 10 μM (concentration code D)
Procedure, shortened: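 HEK293 cells transiently expressing GPR84, Gαi2-Rluc8, GFP10-Gγ2 and Gβ1 were pre-incubated with compounds 5 min at 37 °C in Tyrode's buffer pH 7.5, then stimulated with 200 nmol/L ZQ-16 for 5 min at room temperature. BRET2 (acceptor/donor ratio) read after 5 μmol/L coelenterazine 400A, background- and vehicle-corrected.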

T1 sequence (Q9NQS5 whole entry): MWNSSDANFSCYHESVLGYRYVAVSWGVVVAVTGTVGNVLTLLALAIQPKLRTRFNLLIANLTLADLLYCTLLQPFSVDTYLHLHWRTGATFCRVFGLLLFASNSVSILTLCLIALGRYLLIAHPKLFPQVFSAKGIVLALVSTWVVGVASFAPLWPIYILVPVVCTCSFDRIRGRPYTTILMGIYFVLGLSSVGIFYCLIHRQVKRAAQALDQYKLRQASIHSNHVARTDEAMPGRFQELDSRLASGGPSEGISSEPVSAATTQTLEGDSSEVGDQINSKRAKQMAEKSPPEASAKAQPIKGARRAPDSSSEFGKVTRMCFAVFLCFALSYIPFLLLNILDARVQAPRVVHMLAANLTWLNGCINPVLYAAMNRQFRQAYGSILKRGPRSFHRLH

Row | SMILES | IC50 [nM] | inhibition at 2 µM [%] | inhibition at 10 µM [%]
1 | Cc1cc(OCC(N(C)C)C(F)(F)F)cc(=O)n1[C@H](C)c1ccc(C#CC2CC2)cc1 (stereo partly shown) [Compound I-86] | – | – | 50 to 75
2 | CC#CC#Cc1ccc([C@@H](C)n2c(C)cc(OCc3ncccn3)cc2=O)cc1 [Compound I-74] | – | – | 25 to 50
3 | CCCC#Cc1ccc([C@@H](C)n2c(C)cc(OCC(=O)N(C)C)cc2=O)cc1 [Compound I-20] | ≤ 300 | – | > 75
4 | COc1cc(C(C)n2c(C)cc(OCC(=O)N(C)C)cc2=O)ccn1 (stereo not shown) [Compound I-230] | – | – | < 25
5 | Cc1cc(OCC(=O)N(C)C(C)C)cc(=O)n1[C@H](C)c1ccc(C#CC2CC2)cc1 [Compound I-55] | ≤ 300 | – | > 75
6 | Cc1nc(OCC(=O)N(C)C)cc(=O)n1[C@@H](C)c1ccc(C#CC2CC2)cc1 [Compound I-218] | – | – | < 25
7 | Cc1cc(OCc2cnc(NS(=O)(=O)C(F)(F)F)nc2)cc(=O)n1[C@H](C)c1ccc(C#CC2CC2)cc1 [Compound I-82] | ≤ 300 | > 75 | –
8 | Cc1nc(OCC(=O)N(C)C2COC2)cc(=O)n1[C@H](C)c1ccc(C#CC2CC2)cc1 [Compound I-68] | ≤ 300 | – | > 75
9 | Cc1cc(OCC(=O)N(C)C)cc(=O)n1[C@H](C)c1ccc(C#CC2CC2)c(O)c1 [Compound I-72] | 300 to 1000 | – | > 75
10 | Cc1cc(OCC(=O)N2CCNCC2)cc(=O)n1[C@H](C)c1ccc(C#CC2CC2)cc1 [Compound I-61] | – | – | > 75
11 | Cc1cc(OCC(=O)N2CCCC2)cc(=O)n1[C@H](C)c1ccc(C#CC2CC2)cc1 [Compound I-2] | ≤ 300 | > 75 | –
12 | Cc1cc(OCC(=O)N(C)C)cc(=O)n1[C@H](C)c1ccc(C#CC2CC2)c(Cl)c1 [Compound I-29] | ≤ 300 | > 75 | –
13 | Cc1cc(OCC(=O)N(C)C2CNC2)cc(=O)n1[C@H](C)c1ccc(C#CC2CC2)cc1 [Compound I-78] | – | – | > 75
14 | Cc1cc(OCC(=O)N(C)C)cc(=O)n1[C@H](C)c1ccc(C#CC2CC2(F)F)c(F)c1 (single isomer, unassigned) [Compound I-83] | ≤ 300 | > 75 | –
15 | Cc1cc(OCC(=O)N2CCCC2)cc(=O)n1[C@H](C)c1ccc(C#CC2CC2)c(F)c1 [Compound I-25] | ≤ 300 | > 75 | –
16 | Cc1cc(OCC(=O)NCC(C)C)cc(=O)n1[C@H](C)c1ccc(C#CC2CC2)cc1 [Compound I-49] | – | – | > 75
17 | Cc1cc(OCC(=O)N(C)C2CC2)cc(=O)n1[C@H](C)c1ccc(C#CC2CC2)cc1 [Compound I-42] | ≤ 300 | – | > 75
18 | Cc1cc(OCc2ncccc2C(F)(F)F)cc(=O)n1[C@H](C)c1ccc(C#CC2CC2)cc1 [Compound I-71] | 300 to 1000 | – | > 75
19 | Cc1cc(OCC(=O)N(C)C)cc(=O)n1[C@H](C)c1ccc(C#CC2CC2)c(C#N)c1 [Compound I-34] | ≤ 300 | > 75 | –
20 | Cc1nc(OCC(=O)N(C)C)cc(=O)n1[C@H](C)c1ccc(C#CC2CC2)cc1 [Compound I-217] | ≤ 300 | > 75 | –
21 | Cc1cc(OCC(N(C)C)C(F)(F)F)cc(=O)n1[C@H](C)c1ccc(C#CC2CC2)c(F)c1 (stereo partly shown) [Compound I-85] | – | – | 50 to 75
22 | CCCCCCOc1ccc([C@@H](C)n2c(C)cc(OCc3ncccn3)cc2=O)cc1 [Compound I-130] | – | – | < 25
23 | Cc1cc(OCc2ncccn2)cc(=O)n1[C@H](C)c1ccc(C#CC#CC2CC2)cc1 [Compound I-75] | – | – | < 25
24 | Cc1cc(OCC(=O)N(C)C2CCOCC2)cc(=O)n1[C@H](C)c1ccc(C#CC2CC2)cc1 [Compound I-57] | ≤ 300 | > 75 | –
25 | Cc1cc(OCC2COCCO2)cc(=O)n1C(C)c1ccc(OCC2CCN(C(=O)C3CC3)CC2)c(F)c1 (stereo not shown) [Compound I-16] | – | – | < 25
26 | CNS(=O)(=O)COc1cc(C)n([C@H](C)c2ccc(C#CC3CC3)cc2)c(=O)c1 [Compound I-47] | – | – | 50 to 75
27 | Cc1cc(OCC(=O)N(C)C2CC(F)(F)C2)cc(=O)n1[C@H](C)c1ccc(C#CC2CC2)cc1 [Compound I-67] | 300 to 1000 | – | > 75
28 | Cc1cc(OCC(=O)N2CCOCC2)cc(=O)n1[C@H](C)c1ccc(C#CC2CC2)cc1 [Compound I-3] | ≤ 300 | > 75 | –
29 | COC(=O)COc1cc(C)n([C@H](C)c2ccc(C#CC3CC3)cc2)c(=O)c1 [Compound I-22] | – | – | > 75
30 | Cc1cc(OCC(=O)N2CCCC2)cc(=O)n1[C@H](C)c1ccc(C#CC2(C)CC2)cc1 [Compound I-88] | 300 to 1000 | – | > 75

Other lines, results leading:

Row | IC50 [nM] | inhibition at 2 µM [%] | inhibition at 10 µM [%] | SMILES
31 | ≤ 300 | > 75 | – | Cc1cc(OCC(=O)N2CC(C)(CO)C2)cc(=O)n1[C@H](C)c1ccc(C#CC2CC2)cc1 [Compound I-313]
32 | – | – | < 25 | Cc1cc(OCC(=O)N(C)C)cc(=O)n1C(C)c1ccnc(O)c1 (stereo not shown) [Compound I-231]
33 | – | – | < 25 | Cc1cc(OCC(=O)N(C)C)cc(=O)n1[C@H](C)c1ccc(-c2nnn[nH]2)cc1 [Compound I-266]
34 | ≤ 300 | > 75 | – | Cc1cc(OCc2ncnn2C)cc(=O)n1[C@H](C)c1ccc(C#CC2CC2)cc1 [Compound I-329]
35 | ≤ 300 | > 75 | – | COCC1CN(C(=O)COc2cc(C)n([C@H](C)c3ccc(C#CC4CC4)cc3)c(=O)c2)C1 [Compound I-292]
36 | – | – | 50 to 75 | Cc1cc(OCCN(C)C)cc(=O)n1[C@H](C)c1ccc(C#CC2CC2)cc1 [Compound I-280]
37 | 300 to 1000 | > 75 | – | Cc1cc(OCc2nnn(C)n2)cc(=O)n1[C@H](C)c1ccc(C#CC2CC2)cc1 [Compound I-261]
38 | 300 to 1000 | > 75 | – | Cc1cc(OCC(=O)N2CC[C@@H](S(=O)(=O)N(C)C)C2)cc(=O)n1[C@H](C)c1ccc(C#CC2CC2)cc1 [Compound I-334]
39 | – | – | > 75 | Cc1cc(OCC(=O)N2CC[C@H](N(C)S(C)(=O)=O)C2)cc(=O)n1[C@H](C)c1ccc(C#CC2CC2)cc1 [Compound I-337]
40 | – | > 75 | – | Cc1cc(OCC(=S)N(C)C)cc(=O)n1[C@H](C)c1ccc(C#CC2CC2)cc1 [Compound I-279]
41 | ≤ 300 | > 75 | – | Cc1cc(OCC(=O)N2CCCC2(C)C)cc(=O)n1[C@H](C)c1ccc(C#CC2CC2)cc1 [Compound I-258]
42 | – | – | > 75 | Cc1cc(OCC(=O)N(C)C)cc(=O)n1C(C)c1ccc(C#CC2CC2)cc1Cl (stereo not shown) [Compound I-262]
43 | 300 to 1000 | > 75 | – | Cc1cc(OCC(=O)N2CCC[C@@H]2C#N)cc(=O)n1[C@H](C)c1ccc(C#CC2CC2)cc1 [Compound I-306]
44 | 300 to 1000 | – | > 75 | Cc1cc(OCC(=O)N2CC3C(C2)C3(C)C)cc(=O)n1[C@H](C)c1ccc(C#CC2CC2)cc1 (stereo partly shown) [Compound I-285]
45 | – | – | > 75 | Cc1nc(OCC(=O)N2CC[C@@H](C(=O)O)C2)cc(=O)n1[C@H](C)c1ccc(C#CC2CC2)cc1 [Compound I-298]
46 | ≤ 300 | > 75 | – | Cc1cc(OCC(=O)N2CC[C@H](O)C2)cc(=O)n1[C@H](C)c1ccc(C#CC2CC2)cc1 [Compound I-242]

Row | IC50 [nM] | inhibition at 2 µM [%] | inhibition at 10 µM [%] | SMILES
47 | ≤ 300 | – | > 75 | Cc1cc(OCC(=O)N2C[C@@H](O)[C@H](O)C2)cc(=O)n1[C@H](C)c1ccc(C#CC2CC2)cc1 [Compound I-315]
48 | – | – | 50 to 75 | Cc1cc(OCC(=O)N(C)C)c(Br)c(=O)n1[C@H](C)c1ccc(C#CC2CC2)cc1 [Compound I-317]
49 | 300 to 1000 | – | > 75 | Cc1cc(OCC(=O)N2CCC[C@@H]2C(=O)O)cc(=O)n1[C@H](C)c1ccc(C#CC2CC2)cc1 [Compound I-246]
50 | 1000 to 3000 | > 75 | – | Cc1nc(OCC(=O)N2CC[C@H](C(=O)O)C2)cc(=O)n1[C@H](C)c1ccc(C#CC2CC2)cc1 [Compound I-299]
51 | 300 to 1000 | > 75 | – | Cc1cc(OCC(=O)C(C)(C)C)cc(=O)n1[C@H](C)c1ccc(C#CC2CC2)cc1 [Compound I-272]
52 | ≤ 300 | > 75 | – | Cc1cc(OCC(=O)N2CC[C@H](C#N)C2)cc(=O)n1[C@H](C)c1ccc(C#CC2CC2)cc1 [Compound I-310]
53 | – | – | < 25 | Cc1cc(OCC(=O)N(C)C)cc(=O)n1[C@H](C)c1ccc(C#CC(=O)O)cc1 [Compound I-264]
54 | ≤ 300 | > 75 | – | COC1CN(C(=O)COc2cc(C)n([C@H](C)c3ccc(C#CC4CC4)cc3)c(=O)c2)C1 [Compound I-294]
55 | – | > 75 | – | Cc1cc(OCC(=O)N2CCC(C)(C)C2)cc(=O)n1[C@H](C)c1ccc(C#CC2CC2)cc1 [Compound I-256]
56 | – | – | > 75 | Cc1cc(/C=C2\SC(=O)NC2=O)cc(=O)n1[C@H](C)c1ccc(C#CC2CC2)cc1 [Compound I-339]
57 | ≤ 300 | > 75 | – | Cc1cc(OCC(=O)N(C)CC(F)(F)F)cc(=O)n1[C@H](C)c1ccc(C#CC2CC2)cc1 [Compound I-232]
58 | ≤ 300 | > 75 | – | Cc1cc(OCC(=O)N(C2CC2)C2CC2)cc(=O)n1[C@H](C)c1ccc(C#CC2CC2)cc1 [Compound I-278]
59 | ≤ 300 | > 75 | – | Cc1cc(OCC(=O)N2CC[C@@H](S(C)(=O)=O)C2)cc(=O)n1[C@H](C)c1ccc(C#CC2CC2)cc1 [Compound I-252]
60 | – | – | < 25 | Cc1cc(OCC(=O)N(C)CC(F)(F)F)cc(=O)n1[C@@H](C)c1ccc(C#CC2CC2)cc1 [Compound I-237]
61 | ≤ 300 | > 75 | – | Cc1cc(OCC(=O)N2CCC3(CC3)C2)cc(=O)n1[C@H](C)c1ccc(C#CC2CC2)cc1 [Compound I-319]
